Data reported in patent US20250326708A1, “LONG-ACTING SPLEEN-TARGETING CATIONIC LIPID COMPOUND COMPRISING BENZENE RING STRUCTURE, COMPOSITION COMPRISING SAME, AND USE THEREOF” (Beijing Youcarekechuang Pharmaceutical Technology Co., Ltd., priority 2024, published 2025).

Key:
[1] = tested on: 293T cells; assay: Fluorescence detection of Fluc-mRNA (transfection efficiency) of LNP preparations; type: cell-based; details: for Relative light unit (RLU): LNP with 0.3 μg Fluc-mRNA, 96-well plate, 24 hours
Description: (§1) Cell recovery and passage: 293T cells were recovered and cultured in culture dishes. The cells were passaged until the required number of cells was obtained.
(§2) Seeding plates: The cells in culture dishes were digested and counted, then seeded in a 96-well plate at 10,000 cells per well and seeded in a 12-well plate at 150,000 cells per well. The cells were cultured overnight until cell adhesion.
(§3) The cationic lipids listed in Table 2 were each mixed with DSPC (AVT (Shanghai) Pharmaceutical Technology Co., Ltd.), cholesterol (AVT (Shanghai) Pharmaceutical Technology Co., Ltd.), and DMG-PEG2000 in a molar ratio of 49:10:39.5:1.5 and dissolved in ethanol to prepare ethanol lipid solutions. Using the ethanol injection method, the ethanol lipid solutions were quickly added to a citrate buffer (pH between 4 and 5), and vortexed for 30 seconds for later use. eGFP-mRNA (purchased from Shanghai BioHub Biotechnology Co., Ltd.), Fluc-mRNA (purchased from Shanghai BioHub Biotechnology Co., Ltd.), or Cy5 fluorescently labeled Leqvio (purchased from Sangon Biotech (Shanghai) Co., Ltd.) was diluted in a citrate buffer (pH between 4 and 5) to obtain an mRNA aqueous solution. A certain volume of the lipid solution and the mRNA aqueous solution were mixed to prepare liposomes at a total lipid-to-mRNA weight ratio of 15:1. The mixtures were sonicated at 25° C. for 15 minutes (ultrasonic frequency: 40 kHz, ultrasonic power: 800 W). The resulting liposomes were diluted 10-fold with PBS, followed by ultrafiltration using a 300 kDa ultrafiltration tube to remove ethanol. After adjusting the volume with PBS, LNP preparations encapsulating eGFP-mRNA or Fluc-mRNA were obtained, using cationic lipids, DSPC, cholesterol, and DMG-PEG2000 at a molar ratio of 49:10:39.5:1.5.
(§4) Cell recovery and passage: The method was the same as described in Example 3.
(§5) Seeding plates: The method was the same as described in Example 3.
LNP preparations containing 0.3 μg of Fluc-mRNA (with the vector components of the LNP preparations of cationic lipids, DSPC, cholesterol, and DMG-PEG2000 in a molar ratio of 49:10:39.5:1.5, where the cationic lipids are those listed in Table 1) were added to the cell culture medium in a 96-well plate. After 24 hours of continued culture, the corresponding reagents were added according to the instructions in the Gaussia Luciferase Assay Kit. Fluorescence intensity in each well was detected using the IVIS fluorescence detection system. The transfection efficiency of LNP preparations prepared with a series of cationic lipid compounds designed in the present disclosure, as well as cationic lipids from the prior art, including SM-102, HHMA, MC3, compound 7, and I-1, is shown in Table 4.

[2] = Particle size and polydispersity index (PDI) of lipid nanoparticles, dynamic light scattering; type: physicochemical; details: LNP preparation with the named cationic lipid; 90° scattering angle, 25° C
From the text: as §3
The particle size and polydispersity index (PDI) were measured using dynamic light scattering with a Malvern laser diffraction particle size analyzer.
10 μL of liposome solution was diluted to 1 mL with RNase-free deionized water and added to the sample cell. Each sample was measured three times. The measurement conditions were as follows: 90° scattering angle, 25° C.

[3] = tested on: 293T cells; assay: Cell viability assay (CCK-8) with LNP preparations of Fluc-mRNA; type: cell-based; details: LNP with 1.5 μg Fluc-mRNA, 24 hours, CCK-8
Description: as §1, §2, §3, §4, §5
LNP preparations containing 1.5 μg of Fluc-mRNA (with the vector components of the LNP preparations of cationic lipids, DSPC, cholesterol, and DMG-PEG2000 in a molar ratio of 49:10:39.5:1.5, where the cationic lipids are those listed in Table 1) were added to the cell culture medium in a 96-well plate. After 24 hours of continued culture, 10 μL of CCK-8 solution was added to each well, and the culture plate was incubated in an incubator for 1 hour.

SMILES	PDI [2]	Particle size [2]	Relative light unit (RLU) [1]	Cell viability [3]	Cellular transfection efficiency, times that of HHMA ([1]; Fluc-mRNA LNP, vs HHMA)	Cellular transfection efficiency, times that of I-1 ([1]; Fluc-mRNA LNP, vs I-1)	Cellular transfection efficiency, times that of MC3 ([1]; Fluc-mRNA LNP, vs MC3)	Cellular transfection efficiency, times that of SM-102 ([1]; Fluc-mRNA LNP, vs SM-102)	Cellular transfection efficiency, times that of YK-501 ([1]; Fluc-mRNA LNP, vs YK-501)	Cellular transfection efficiency, times that of YK-506 ([1]; Fluc-mRNA LNP, vs YK-506)	Cellular transfection efficiency, times that of compound 7 ([1]; Fluc-mRNA LNP, vs compound 7)
CCCCCCCCCCCCC(O)CN(C)CCCCCC(=O)OCC(CCCCCC)CCCCCCCC (centres unmarked) [HHMA, reference compound]	16.3%	146 nm	1011156 RLU	77%							
CCCCCCCCC(CCCCCC)COC(=O)CCCCCN(CCCCCC(=O)OCC(CCCCCC)CCCCCCCC)CCCCC(=O)OCc1ccccc1.I (centres unmarked) [I-1, bis(2-hexyldecyl) 6,6′-((5-(benzyloxy)-5-oxopentyl)azanediyl)dihexanoate, reference compound]	16.2%	158 nm	202730 RLU	68%							
CCCCC/C=C\C/C=C\CCCCCCCCC(CCCCCCCC/C=C\C/C=C\CCCCC)OC(=O)CCCN(C)C [MC3, reference compound]	15.7%	151 nm	94904 RLU	74%							
CCCCCCCCCCC(CCCCCCCCCC)CCCOC(=O)CCCCCNC(CO)(CO)CCc1ccc(CCCCCCCC)cc1 [YK-901, 4-decyltetradecyl 6-((1-hydroxy-2-(hydroxymethyl)-4-(4-octylphenyl)butan-2-yl)amino) hexanoate]	17.4%	162 nm	43423 RLU	58%							
CCCCCCCCCCC(CCCCCCCCCC)CCCOC(=O)CCCNC(CO)(CO)CCc1ccc(CCCCCCCC)cc1 [YK-902, 4-decyltetradecyl 4-((1-hydroxy-2-(hydroxymethyl)-4-(4-octylphenyl)butan-2-yl)amino) butanoate]	12.4%	142 nm	311132 RLU	36%	0.31 times	1.53 times	3.28 times	0.22 times	6.73 times	0.48 times	1.21 times
CCCCCCCCCCOC(=O)CCCNC(CO)(CO)CCc1ccc(CCCCCCCC)cc1 [YK-903, decyl 4-((1-hydroxy-2-(hydroxymethyl)-4-(4-octylphenyl)butan-2-yl)amino) butanoate]	15.1%	152 nm	25006 RLU	47%							

More lines, main results first:

PDI [2]	Particle size [2]	SMILES	Relative light unit (RLU) [1]	Cell viability [3]	Cellular transfection efficiency, times that of HHMA ([1]; Fluc-mRNA LNP, vs HHMA)	Cellular transfection efficiency, times that of I-1 ([1]; Fluc-mRNA LNP, vs I-1)	Cellular transfection efficiency, times that of MC3 ([1]; Fluc-mRNA LNP, vs MC3)	Cellular transfection efficiency, times that of SM-102 ([1]; Fluc-mRNA LNP, vs SM-102)	Cellular transfection efficiency, times that of YK-501 ([1]; Fluc-mRNA LNP, vs YK-501)	Cellular transfection efficiency, times that of YK-506 ([1]; Fluc-mRNA LNP, vs YK-506)	Cellular transfection efficiency, times that of compound 7 ([1]; Fluc-mRNA LNP, vs compound 7)
16.9%	135 nm	CCCCCCCCCCCOC(=O)CCCCCNC(CO)(CO)CCc1ccc(CCCCCCCC)cc1 [YK-905, undecyl 6-((1-hydroxy-2-(hydroxymethyl)-4-(4-octylphenyl)butan-2-yl)amino) hexanoate]	72425 RLU	51%							
10.2%	124 nm	CCCCCCCCCCOC(=O)CCCN(CCCCCC(=O)OCC(CCCCCCCC)CCCCCCCC)CCNC(CO)(CO)CCc1ccc(CCCCCCCC)cc1 [YK-906, 2-octyldecyl 6-((4-(decyloxy)-4-oxobutyl) (2-((1-hydroxy-2-(hydroxymethyl)-4-(4-octylphenyl)butan-2-yl)amino)ethyl)amino) hexanoate]	27546 RLU	63%							
16.2%	159 nm	CCCCCCCCCCCCCCNC(=O)CCCCCNC(CO)(CO)CCc1ccc(CCCCCCCC)cc1 [YK-907, 6-((1-hydroxy-2-(hydroxymethyl)-4-(4-octylphenyl)butan-2-yl)amino)-N-tetradecylhexanamide]	37699 RLU	73%							
10.4%	136 nm	CCCCCCCCc1ccc(CCC(CO)(CO)NCCCCCCC(=O)OCC(CCCCCCCC)CCCCCCCC)cc1 [YK-911, 2-octyldecyl 7-((1-hydroxy-2-(hydroxymethyl)-4-(4-octylphenyl)butan-2-yl)amino) heptanoate]	1299055 RLU	62%							
